Results on 4 compounds are retold here after patent publication US7750046B2, “Treatment of symptoms associated with irritable bowel syndrome” (The Board of Trustees of the Leland Stanford Jr. University, priority 2001, dated 2010).

Format in all cases: in vivo, human
Data set [1] has as its system subjects who met the Rome Criteria for IBS. The data set is described as follows: VAS abdominal pain score (20-point Visual Analogue scale) in IBS study. The following applies: for Regression analysis: dependence of VAS score on drug dosage: larger doses; for p-value of drop in mean VAS pain scores: oral. From the text: (§1) This is a longitudinal single blinded, randomized placebo controlled study in which patients act as their own controls. Subjects were volunteers who met the Rome Criteria for IBS and without other active bowel disease (i.e. GERD, colon cancer). Both adult men and women participated, ranging in age from 23 to 75 years old, with greater number of women by a ratio of 2.5:1. Subjects responded to a Bowel Symptom Questionnaire (B. Naliboff, UCLA) as well as a Brief Mood Survey (D. Burns, Stanford). […] In addition, data was collected during a washout period of one week without any study drug.
(§2) A titration period of three to four weeks is being used to stabilize each patient on an efficacious dose of medication. […] During each week of the titration period, the cocktail was modified to allow a gradual increase or decrease in dose. Results were collected weekly by questionnaires.
(§3) Benefit in treating chronic IBS using nerve-acting agents was quantified by a decrease in mean values of abdominal pain with a 20-point Visual Analogue scale and a decrease in bowel symptoms (bloating, etc.) using a 20-point scale. Mood was also followed by a Brief Mood Survey, which rates Depression, Anxiety, Panic, Anger and Suicidal Urge (88 points maximum total).

Data set [2] has the same test system. The experiment in a line: Bloating score (20-point scale, Bowel Symptom Questionnaire) in IBS study. The following applies: for Regression analysis: dependence of bloating score on drug dosage: larger doses.
Source text: as §1, §2, §3

Data set [3] shares this test system. The experiment in a line: Brief Mood Survey in IBS study. The following applies: for Regression analysis: dependence of mood score on drug dosage: larger doses.
Source text: as §1, §3

The test system is the same in data set [4]. The experiment in a line: IBS study, symptom scores overall (VAS pain, bloating, mood). The following applies: for Drug effect versus placebo effect, overall / Reduction of symptoms overall (H0 no reduction vs H1 some reduction): result in words.
Source text: as §1, §2, §3

Data set [5] shares this test system. The experiment in a line: Side effects reported in IBS study. Conditions: 25 mg qhs; resolved after discontinuation.
Source text: This is a longitudinal single blinded, randomized placebo controlled study in which patients act as their own controls. Subjects were volunteers who met the Rome Criteria for IBS and without other active bowel disease (i.e. GERD, colon cancer). Both adult men and women participated, ranging in age from 23 to 75 years old, with greater number of women by a ratio of 2.5:1. Subjects responded to a Bowel Symptom Questionnaire (B. Naliboff, UCLA) as well as a Brief Mood Survey (D. Burns, Stanford). Baseline questionnaire results were taken just prior to any drug treatment as well as shortly after. In addition, data was collected during a washout period of one week without any study drug. Drugs studied included intravenous lidocaine and a trial of the oral mexiletine, topiramate, gabapentin or placebo.
as §2

The mark [6] stands for this setting: intravenous, 22 subjects, 20 point scale.

The structures appear in SMILES notation. Entries after “also recorded” stand apart in the source; their conditions may differ.

Consider `NCC1(CC(=O)O)CCCCC1` [gabapentin], for which, in data set [1], the “Regression analysis: dependence of VAS score on drug dosage” value is “some effect”. Also, the “p-value of drop in mean VAS pain scores” value in data set [1] (300 mg) amounted to 0.06. In data set [1] (600 mg), the “p-value of drop in mean VAS pain scores” value was found to be 0.04. Besides, the “Regression analysis: dependence of bloating score on drug dosage” value in data set [2] is “some effect”. In addition, the “Regression analysis: dependence of mood score on drug dosage” value in data set [3] is recorded as “not very important for mood”. In data set [4], the “Drug effect versus placebo effect, overall” value is “different from placebo at doses 600 mg and higher”; the “Reduction of symptoms overall (H0 no reduction vs H1 some reduction)” value was “become more pronounced as the dosage is increased”.
For the compound `CCN(CC)CC(=O)Nc1c(C)cccc1C` [lidocaine], the “VAS Pain scores, mean reduction” value in data set [1] (setting [6]) was found to be 4.80. For the same compound, the “Reduction of VAS (H0 no reduction vs H1 some reduction)” value in data set [1] (result in words) is recorded as “highly significant”. Further, the “Bloating, mean reduction” value in data set [2] (setting [6]) is given as 6.8. Also, the “Reduction of bloating (H0 no reduction vs H1 some reduction)” value in data set [2] (result in words) is given as “highly significant”. Besides, in data set [3] (result in words), the “Effect on mood (H0 no reduction vs H1 some reduction)” value is on record as “highly significant”. For the same compound, the “Relief of symptoms of abdominal pain, bloating and distension in IBS” value in data set [4] (intravenous) is recorded as “very effective”. Moreover, the “Drug effect versus placebo effect, overall” value in data set [4] is recorded as “much stronger effect than placebo”. Besides, the “Reduction of symptoms overall (H0 no reduction vs H1 some reduction)” value in data set [4] is reported as “All patients had a significant drop in their scores”; in data set [4] (listed as Lidocaine), “most influential drug of all”.
`Cc1cccc(C)c1OCC(C)N` (centres unmarked) [mexiletine]: in data set [1], the “Regression analysis: dependence of VAS score on drug dosage” value was “some effect”. Also, in data set [1] (result in words), the “VAS: drug effect versus placebo effect” value is reported as “different from placebo at all levels”. Also, the “Results in decreasing bloating” value in data set [2] (all dosages, 300 mg, 450 mg & 900 mg) is listed as “significant results in decreasing bloating”. For the same compound, the “Regression analysis: dependence of bloating score on drug dosage” value in data set [2] is given as “some effect”. For the same compound, the “Bloating: drug effect versus placebo effect” value in data set [2] (result in words) is listed as “different from placebo at all levels”. The “Regression analysis: dependence of mood score on drug dosage” value in data set [3] is listed as “not very important for mood”. In addition, the “Reduction of symptoms overall (H0 no reduction vs H1 some reduction)” value in data set [4] is on record as “significant at all dosages”.
For `CC1(C)O[C@@H]2[C@@H](CO[C@@]3(COS(N)(=O)=O)OC(C)(C)O[C@@H]23)O1` [topiramate], in data set [1] (result in words), the “VAS: drug effect versus placebo effect” value is “different from placebo for VAS and bloating at doses 50 mg and higher”. Besides, the “Effect on decreasing bloating” value in data set [2] (60 mg) is “borderline effect”. In data set [2] (result in words), the “Bloating: drug effect versus placebo effect” value is “different from placebo for VAS and bloating at doses 50 mg and higher”. In addition, in data set [5], the “Side effects reported: fatigue, number of subjects” value was “Two”. The “Regression analysis: dependence of any score on drug dosage” value in data set [4] (larger doses) is recorded as “do not significantly reduce any score in a predictable manner”. In addition, the “Reduction of symptoms overall (H0 no reduction vs H1 some reduction)” value in data set [4] is “least effect of all drugs; also recorded: barely become significant at doses of 50 mg and higher”.
